Test results as given in patent publication US20230027472A1, “TARGETING P73 FOR CANCERS RESISTANT TO BH3 MIMETICS” (BOARD OF REGENTS, THE UNIVERSITY OF TEXAS SYSTEM, priority 2019, published 2023).

Tests used:
Format in all cases: cell-based
OCI-AML3 cells [1] = assay: Annexin V staining and live cell counting by flow cytometry in OCI-AML3 cells with lentiviral p73 knockdown
Method: Apoptosis induction was measured by annexin V staining (Annexin V positive cells (%)), and live cell numbers were measured by counting beads by flow cytometry.

TAp73 and ΔNp73 = TAp73 and ΔNp73 levels in AML cells after (R)-2HG treatment
Text: Results The inventors determined copy numbers of ΔNp73 and TAp73 mRNA levels in 78 AML samples including 31 de novo AML using droplet digital PCR (ddPCR), which allows to determine the absolute quantity of the isoforms expressed, and investigated their clinical and biological relevance. ΔNp73 and TAp73 expression was detected in 93.6% and 98.7% of AML samples at variable levels (mean±SEM, 10.6±5.0, and 106.6±33.7 copies/μL, for ΔNp73 and TAp73, respectively). ΔNp73 and TAp73 mRNA levels were highly correlated (R^2=0.72, P<0.0001). […] However, AML with IDH1/2 mutations had 8.5-fold lower ΔNp73 expression than those with wild-type IDH1/2 (1.8±0.8 vs 15.4±7.7 copies/μL, P=0.0069), with a similar trend for TAp73 (49.0±20.3 vs 138.6±51.4 copies/μL, P=0.056). […] To further explore the regulation of TP73 isoforms, the inventors used MDM2 inhibitor Nutlin-3a to induce p53 which is a transcriptional inducer of ΔNp73. […] AML cells with IDH1/2 mutations are more dependent on Bcl-2 than those without (Chan, Nat Med 2015).

AML cells = assay: Susceptibility of AML cells to Bcl-2 inhibitor ABT-199 (VEN) after (R)-2HG treatment; settings: AML cells treated with 2HG
MOLM-13 cells [2] = assay: Sensitivity of MOLM-13 parent and ABT-199 resistant (ABTR) cells to ABT-199, annexin V and live cell numbers; settings: MOLM-13 ABTR cells versus parent
Method: (§1) In FIG. 2A, there are immunoblot images of two AML cell lines (MOLM-13 and MV4;11 cells) that acquired ABT-199 resistance (ABTR) through long-term exposure to continuous treatment of ABT-199. Parental control cells (Parent) are used for comparison. Histone H3 (H3) serves as a loading control, and relative protein levels were measured as ratios of target proteins and H3 through densitometry. […] In FIG. 2B, there is shown sensitivity of MOLM-13 and MV4;11 parent and ABTR cells to ABT-199. Apoptosis induction was measured by annexin V staining (Annexin V positive cells (%)), and live cell numbers were measured by counting beads by flow cytometry.

MV4;11 cells = assay: Sensitivity of MV4;11 parent and ABT-199 resistant (ABTR) cells to ABT-199, annexin V and live cell numbers; settings: MV4;11 ABTR cells versus parent
Method: as §1

MOLM-13 cells [3] = assay: Sensitivity to ABT-199 in MOLM-13 cells with overexpression of p73 isoforms/variants, annexin V and live cell numbers
Method: In FIG. 3A, there are immunoblot images of different p73 N-terminal isoforms (TA and ΔN) and C-terminal variants (α, β and γ) protein levels. MOLM13 cells with overexpression of those p73 isoforms/variants was generated by lentiviral transfection. β-actin serves as a loading control. Successful overexpression of p73 isoforms/variants in MOLM-13 cells, which are originally sensitive to ABT-199. […] Apoptosis induction was measured by annexin V staining (Annexin V positive cells (%)), and live cell numbers were measured by counting beads by flow cytometry. […] A p73 isoform ΔNp73γ overexpression induced resistance to ABT-199, indicating a novel resistance mechanism by p73 isoforms/variants to ABT-199 in AML cells.

OCI-AML3 cells [4] = assay: Apoptosis induction by Nutlin-3a (specific annexin V induction) in OCI-AML3 cells with vector control or p73 knockdown; settings: 5 μM Nutlin-3a
Text: (§2) To further explore the regulation of TP73 isoforms, the inventors used MDM2 inhibitor Nutlin-3a to induce p53 which is a transcriptional inducer of ΔNp73.

p73 = p73 protein levels after MDM2 inhibition in AML cells
Text: as §2

Compound: Nc1ncn([C@@H]2O[C@H](CO)[C@@H](O)[C@H]2O)c(=O)n1 [5′-azacitidine]
- apoptosis induction (Annexin V positive cells), p73 knockdown versus control (OCI-AML3 cells [1]; p73 knockdown): enhances apoptosis induction

Compound: O=C(O)CC[C@@H](O)C(=O)O [(R)-2HG]
- TAp73 and ΔNp73 levels (TAp73 and ΔNp73): reduced both TAp73 and ΔNp73
- susceptibility to the Bcl-2 inhibitor ABT-199 (VEN) (AML cells): increased susceptibility

Compound: CC1(C)CCC(CN2CCN(c3ccc(C(=O)NS(=O)(=O)c4ccc(NCC5CCOCC5)c([N+](=O)[O-])c4)c(Oc4cnc5[nH]ccc5c4)c3)CC2)=C(c2ccc(Cl)cc2)C1 [ABT-199]
- sensitivity to VEN (OCI-AML3 cells [1]; lentiviral knockdown of p73): enhanced sensitivity
- apoptosis induction (Annexin V positive cells), p73 knockdown versus control (OCI-AML3 cells [1]; p73 knockdown): greater
- live cell numbers, p73 knockdown versus control (OCI-AML3 cells [1]; p73 knockdown): superior reduction of live cell numbers
- sensitivity to ABT-199 (apoptosis, live cell numbers) (MOLM-13 cells [2]): clearly show resistance
- sensitivity to ABT-199 (apoptosis, live cell numbers) (MV4;11 cells): clearly show resistance
- sensitivity to ABT-199 (apoptosis, live cell numbers) (MOLM-13 cells [3]; MOLM-13 cells with TAp73α overexpression): still sensitive
- sensitivity to ABT-199 (apoptosis, live cell numbers) (MOLM-13 cells [3]; MOLM-13 cells with TAp73α overexpression, listed as VEN): minimally increased VEN-induced apoptosis
- sensitivity to ABT-199 (apoptosis, live cell numbers) (MOLM-13 cells [3]; MOLM-13 cells with vector control): still sensitive
- sensitivity to ABT-199 (apoptosis, live cell numbers) (MOLM-13 cells [3]; MOLM-13 cells with ΔNp73β overexpression): still sensitive
- sensitivity to ABT-199 (apoptosis, live cell numbers) (MOLM-13 cells [3]; MOLM-13 cells with ΔNp73γ overexpression): resistant
- sensitivity to ABT-199 (apoptosis, live cell numbers) (MOLM-13 cells [3]; MOLM-13 cells with ΔNp73γ overexpression, listed as VEN): striking resistance

Compound: COc1ccc(C2=N[C@@H](c3ccc(Cl)cc3)[C@@H](c3ccc(Cl)cc3)N2C(=O)N2CCNC(=O)C2)c(OC(C)C)c1 [Nutlin-3a]
- specific annexin V induction (OCI-AML3 cells [4]; OCI-AML3 cells with Shp73 (knockdown of TAp73 and ΔNp73)): 61.3±5.2%
- specific annexin V induction (OCI-AML3 cells [4]; OCI-AML3 cells with vector control): 21.9±1.3%
- p73 protein levels (p73): increased p73 protein levels

Compound: CCCCCCCCOC(=O)[C@H](O)CCC(=O)O [octyl-(R)-2HG]
- TAp73 and ΔNp73 levels (TAp73 and ΔNp73): reduced both TAp73 and ΔNp73
- susceptibility to the Bcl-2 inhibitor ABT-199 (VEN) (AML cells): increased susceptibility
